Assays:
Conditions in all cases: compound at 10 μM
Human δ-opioid (DOP) = biological target: T1, Human δ-opioid (DOP) (Homo sapiens, UniProt P41143); assay: Radioligand binding, human δ-opioid (DOP) membranes, FlashPlate, [3H]-Bremazocine
T1 construct: purchased Perkin Elmer Biosignal
Method in brief: (§1)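 Cloned human receptor membranes were coated onto FlashPlate wells and incubated with radioligand and compound (added from a 0.5 mM DMSO daughter plate) for 1 hour at room temperature in the dark. Scintillation counting gave percent inhibition, with DMSO defining total and reference ligand defining non-specific binding.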

Human κ-Opioid (KOP) = biological target: T2, Human κ-Opioid (KOP) (Homo sapiens, UniProt P41145); assay: Radioligand binding, human κ-opioid (KOP) membranes, filtration, [3H]-Diprenorphine
T2 construct: purchased Perkin Elmer Biosignal
Method in brief: (§2)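 Membranes from cloned human receptors were incubated with compound and radioligand for 1 hour at room temperature. Bound ligand was collected on 0.3% PEI-soaked filters, washed with cold 50 mM Tris-HCl pH 7.4, and counted by scintillation. Percent inhibition was computed against DMSO totals and reference-ligand nonspecific wells.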

Human Melanocortin (MC3) = biological target: T3, Human Melanocortin (MC3) (Homo sapiens, UniProt P41968); assay: Radioligand binding, human melanocortin MC3 membranes, FlashPlate, [125I]-NDP-αMSH
T3 construct: purchased Perkin Elmer Biosignal
Method in brief: as §1

Human Melanocortin (MC4) = biological target: T4, Human Melanocortin (MC4) (Homo sapiens, UniProt P32245); assay: Radioligand binding, human melanocortin MC4 membranes, FlashPlate, [125I]-NDP-αMSH
T4 construct: purchased Perkin Elmer Biosignal
Method in brief: as §1

Human melanocortin (MC5) = biological target: T5, Human melanocortin (MC5) (Homo sapiens, UniProt P33032); assay: Radioligand binding, human melanocortin MC5 membranes, FlashPlate, [125I]-NDP-αMSH
T5 construct: purchased Perkin Elmer Biosignal
Method in brief: as §1

[1] = biological target: T6, Human melanin-concentrating hormone (MCH1) (Homo sapiens, UniProt Q99705); assay: Radioligand binding, human melanin-concentrating hormone MCH1 membranes, FlashPlate, [125I]-S36057
T6 construct: purchased Perkin Elmer Biosignal
Method in brief: as §1

Human μ-opioid (MOP) = biological target: T7, Human μ-opioid (MOP) (Homo sapiens, UniProt P35372); assay: Radioligand binding, human μ-opioid (MOP) membranes, FlashPlate, [3H]-Naloxone
T7 construct: purchased Perkin Elmer Biosignal
Method in brief: as §1

Human neurokinin (NK1) = biological target: T8, Human neurokinin (NK1) (Homo sapiens, UniProt P25103); assay: Radioligand binding, human neurokinin NK1 membranes, filtration, [125I]-Substance P
T8 construct: purchased Perkin Elmer Biosignal
Method in brief: as §2

[2] = biological target: T9, Human neuropeptide Y (NPY-Y1) (Homo sapiens, UniProt P25929); assay: Radioligand binding, human neuropeptide Y NPY-Y1 membranes, FlashPlate, [125I]-PYY
T9 construct: purchased Perkin Elmer Biosignal
T9 sequence (P25929 1-384): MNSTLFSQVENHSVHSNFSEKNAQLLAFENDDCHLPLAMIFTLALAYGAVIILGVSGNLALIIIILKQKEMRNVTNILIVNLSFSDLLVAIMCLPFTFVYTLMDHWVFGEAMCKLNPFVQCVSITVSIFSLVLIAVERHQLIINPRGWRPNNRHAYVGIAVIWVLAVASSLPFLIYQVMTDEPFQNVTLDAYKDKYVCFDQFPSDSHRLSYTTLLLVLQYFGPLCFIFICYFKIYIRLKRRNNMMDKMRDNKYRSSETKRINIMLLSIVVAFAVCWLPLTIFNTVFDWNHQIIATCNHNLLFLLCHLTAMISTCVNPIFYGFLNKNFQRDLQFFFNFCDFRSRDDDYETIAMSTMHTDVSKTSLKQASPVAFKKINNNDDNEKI
Method in brief: as §1

Human opioid (ORL1) = biological target: T10, Human opioid (ORL1) (Homo sapiens, UniProt P41146); assay: Radioligand binding, human opioid ORL1 membranes, FlashPlate, [125I]-Nociceptin
T10 construct: purchased Perkin Elmer Biosignal
Method in brief: as §1

Mouse urotensin (mUR2) = biological target: T11, Mouse urotensin (mUR2) (Mus musculus, UniProt Q8VIH9); assay: Radioligand binding, mouse urotensin mUR2 membranes, FlashPlate, [125I]-Urotensin II
T11 construct: purchased Perkin Elmer Biosignal
T11 sequence (Q8VIH9 1-385): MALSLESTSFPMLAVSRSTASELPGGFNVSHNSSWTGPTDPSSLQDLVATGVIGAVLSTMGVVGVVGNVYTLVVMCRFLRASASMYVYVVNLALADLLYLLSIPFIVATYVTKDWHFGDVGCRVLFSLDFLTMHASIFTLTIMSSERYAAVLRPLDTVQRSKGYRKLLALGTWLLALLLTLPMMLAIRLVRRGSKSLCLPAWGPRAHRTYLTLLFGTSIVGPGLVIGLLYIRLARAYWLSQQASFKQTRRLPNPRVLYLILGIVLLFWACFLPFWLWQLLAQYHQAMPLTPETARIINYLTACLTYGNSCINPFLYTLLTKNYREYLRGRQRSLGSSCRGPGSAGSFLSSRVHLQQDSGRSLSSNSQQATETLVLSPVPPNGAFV
Method in brief: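 Cloned mouse urotensin (mUR2) receptor membranes from Perkin Elmer Biosignal were immobilized in FlashPlate microplates using a proprietary coating. Each well got 19.5 μl buffer, then 0.5 μl of DMSO, reference ligand, or compound. Adding 5 μl of [125I]-Urotensin II, diluted to 5× final concentration in binding buffer, started binding. Plates were sealed with TopSeal-A and incubated 1 hour at room temperature in the dark. Wells were counted for 30 seconds each on a TopCount after a 60-second delay, and percentage inhibition was calculated.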

T4 sequence (P32245 whole entry): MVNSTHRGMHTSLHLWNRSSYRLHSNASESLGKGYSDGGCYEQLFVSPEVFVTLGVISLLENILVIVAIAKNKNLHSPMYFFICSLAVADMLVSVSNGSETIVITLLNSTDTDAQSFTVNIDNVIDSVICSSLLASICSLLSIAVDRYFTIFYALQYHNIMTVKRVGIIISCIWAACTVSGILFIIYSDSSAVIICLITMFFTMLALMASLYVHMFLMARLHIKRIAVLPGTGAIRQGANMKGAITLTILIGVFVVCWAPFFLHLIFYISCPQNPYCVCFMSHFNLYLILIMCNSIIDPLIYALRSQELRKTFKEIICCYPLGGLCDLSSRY
T10 sequence (P41146 whole entry): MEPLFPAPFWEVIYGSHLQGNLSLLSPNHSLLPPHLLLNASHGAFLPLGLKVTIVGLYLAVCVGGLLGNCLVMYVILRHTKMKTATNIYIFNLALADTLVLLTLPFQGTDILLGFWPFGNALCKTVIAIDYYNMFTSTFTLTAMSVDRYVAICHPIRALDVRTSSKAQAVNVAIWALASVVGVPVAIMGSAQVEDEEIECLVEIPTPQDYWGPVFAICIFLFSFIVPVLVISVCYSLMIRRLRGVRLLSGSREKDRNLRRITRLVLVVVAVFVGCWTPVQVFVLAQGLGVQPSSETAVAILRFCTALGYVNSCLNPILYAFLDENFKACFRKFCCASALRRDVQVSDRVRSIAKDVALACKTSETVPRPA
T3 sequence (P41968 whole entry): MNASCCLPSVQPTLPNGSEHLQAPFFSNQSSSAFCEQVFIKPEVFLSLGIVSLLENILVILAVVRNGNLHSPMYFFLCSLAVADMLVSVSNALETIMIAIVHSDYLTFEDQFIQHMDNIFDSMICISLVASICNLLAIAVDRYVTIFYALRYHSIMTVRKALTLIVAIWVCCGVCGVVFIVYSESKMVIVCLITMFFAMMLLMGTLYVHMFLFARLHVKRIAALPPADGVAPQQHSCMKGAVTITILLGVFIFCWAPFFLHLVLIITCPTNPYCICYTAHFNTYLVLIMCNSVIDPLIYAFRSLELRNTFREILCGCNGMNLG
T7 sequence (P35372 whole entry): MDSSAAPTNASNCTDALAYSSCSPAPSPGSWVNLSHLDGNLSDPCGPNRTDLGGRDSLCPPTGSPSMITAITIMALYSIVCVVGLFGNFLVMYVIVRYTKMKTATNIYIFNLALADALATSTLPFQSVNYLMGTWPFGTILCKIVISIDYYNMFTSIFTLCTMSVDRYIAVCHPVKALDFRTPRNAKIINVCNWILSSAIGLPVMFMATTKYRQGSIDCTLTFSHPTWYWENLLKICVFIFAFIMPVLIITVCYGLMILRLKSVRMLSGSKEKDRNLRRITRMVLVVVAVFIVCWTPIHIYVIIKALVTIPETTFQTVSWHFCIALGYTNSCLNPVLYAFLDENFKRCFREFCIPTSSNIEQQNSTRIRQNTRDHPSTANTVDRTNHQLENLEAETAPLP
T2 sequence (P41145 whole entry): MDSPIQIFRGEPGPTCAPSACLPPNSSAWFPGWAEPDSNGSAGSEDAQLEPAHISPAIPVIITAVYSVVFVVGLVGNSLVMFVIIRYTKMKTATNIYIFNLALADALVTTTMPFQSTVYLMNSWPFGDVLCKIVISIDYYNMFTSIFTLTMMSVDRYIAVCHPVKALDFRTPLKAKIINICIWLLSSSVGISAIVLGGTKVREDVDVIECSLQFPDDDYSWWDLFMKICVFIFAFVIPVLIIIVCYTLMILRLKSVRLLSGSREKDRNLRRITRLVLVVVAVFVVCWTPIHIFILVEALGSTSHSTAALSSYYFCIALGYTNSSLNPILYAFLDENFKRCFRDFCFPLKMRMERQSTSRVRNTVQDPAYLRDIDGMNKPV
T5 sequence (P33032 whole entry): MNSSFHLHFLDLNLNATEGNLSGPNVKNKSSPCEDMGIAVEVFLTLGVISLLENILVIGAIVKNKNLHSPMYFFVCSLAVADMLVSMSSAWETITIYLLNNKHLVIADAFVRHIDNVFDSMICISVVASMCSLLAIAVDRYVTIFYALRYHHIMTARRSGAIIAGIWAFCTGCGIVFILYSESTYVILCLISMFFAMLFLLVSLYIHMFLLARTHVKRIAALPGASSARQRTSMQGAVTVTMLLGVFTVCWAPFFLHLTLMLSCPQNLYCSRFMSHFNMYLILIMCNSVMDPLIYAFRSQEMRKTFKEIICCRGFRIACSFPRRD
T1 sequence (P41143 whole entry): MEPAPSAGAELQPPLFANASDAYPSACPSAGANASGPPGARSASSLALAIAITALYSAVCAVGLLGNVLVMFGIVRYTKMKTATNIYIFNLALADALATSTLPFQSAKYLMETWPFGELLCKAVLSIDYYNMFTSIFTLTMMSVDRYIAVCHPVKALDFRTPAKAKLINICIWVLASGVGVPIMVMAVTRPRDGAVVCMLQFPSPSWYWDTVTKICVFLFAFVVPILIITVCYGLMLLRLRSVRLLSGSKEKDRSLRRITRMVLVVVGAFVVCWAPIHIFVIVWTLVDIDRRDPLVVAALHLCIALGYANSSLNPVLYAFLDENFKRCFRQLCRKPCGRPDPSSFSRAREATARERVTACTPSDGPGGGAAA
T6 sequence (Q99705 whole entry): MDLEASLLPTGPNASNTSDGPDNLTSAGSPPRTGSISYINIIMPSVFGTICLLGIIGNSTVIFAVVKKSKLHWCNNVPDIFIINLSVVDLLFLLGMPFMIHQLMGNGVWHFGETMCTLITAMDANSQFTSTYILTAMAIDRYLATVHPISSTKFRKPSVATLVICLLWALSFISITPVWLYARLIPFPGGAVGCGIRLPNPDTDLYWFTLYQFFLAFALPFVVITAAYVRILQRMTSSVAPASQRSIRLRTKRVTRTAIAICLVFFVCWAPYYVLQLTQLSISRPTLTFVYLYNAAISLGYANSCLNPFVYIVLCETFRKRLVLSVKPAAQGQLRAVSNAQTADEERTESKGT
T8 sequence (P25103 whole entry): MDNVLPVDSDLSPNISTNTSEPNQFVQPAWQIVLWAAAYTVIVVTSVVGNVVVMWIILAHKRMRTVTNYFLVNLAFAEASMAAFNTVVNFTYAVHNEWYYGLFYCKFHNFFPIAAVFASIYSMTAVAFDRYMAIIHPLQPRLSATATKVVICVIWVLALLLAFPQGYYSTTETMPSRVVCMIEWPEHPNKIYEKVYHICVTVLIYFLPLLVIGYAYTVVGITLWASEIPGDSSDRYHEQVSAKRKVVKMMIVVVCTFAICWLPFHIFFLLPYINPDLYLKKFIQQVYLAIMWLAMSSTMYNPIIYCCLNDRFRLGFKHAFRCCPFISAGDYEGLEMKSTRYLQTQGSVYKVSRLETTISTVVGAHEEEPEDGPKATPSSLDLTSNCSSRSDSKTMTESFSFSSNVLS

N=C(N)NCCC(=O)NC1C(OCc2ccc(Cl)cc2)OC(COCc2ccc(Cl)cc2)C(O)C1OCc1ccc2ccccc2c1 (stereo not shown) [compound 431]
A1: inhibition of radioligand binding (Human δ-opioid (DOP); [3H]-Bremazocine, human DOP membranes): − (“−” indicates less than 50% inhibition at 10 μM)
A2: inhibition of radioligand binding (Human κ-Opioid (KOP); [3H]-Diprenorphine, human KOP membranes): − (“−” indicates less than 50% inhibition at 10 μM)
A3: inhibition of radioligand binding (Human Melanocortin (MC3); [125I]-NDP-αMSH, human MC3 membranes): + (“+” indicates greater than 50% inhibition at 10 μM)
A4: inhibition of radioligand binding (Human Melanocortin (MC4); [125I]-NDP-αMSH, human MC4 membranes): + (“+” indicates greater than 50% inhibition at 10 μM)
A5: inhibition of radioligand binding (Human melanocortin (MC5); [125I]-NDP-αMSH, human MC5 membranes): + (“+” indicates greater than 50% inhibition at 10 μM)
A6: inhibition of radioligand binding ([1]; [125I]-S36057, human MCH1 membranes): + (“+” indicates greater than 50% inhibition at 10 μM)
A7: inhibition of radioligand binding (Human μ-opioid (MOP); [3H]-Naloxone, human MOP membranes): − (“−” indicates less than 50% inhibition at 10 μM)
A8: inhibition of radioligand binding (Human neurokinin (NK1); [125I]-Substance P, human NK1 membranes): + (“+” indicates greater than 50% inhibition at 10 μM)
A9: inhibition of radioligand binding ([2]; [125I]-PYY, human NPY-Y1 membranes): − (“−” indicates less than 50% inhibition at 10 μM)
A10: inhibition of radioligand binding (Human opioid (ORL1); [125I]-Nociceptin, human ORL1 membranes): + (“+” indicates greater than 50% inhibition at 10 μM)
A11: inhibition of radioligand binding (Mouse urotensin (mUR2); [125I]-Urotensin II, mouse mUR2 membranes): − (“−” indicates less than 50% inhibition at 10 μM)

COC[C@H]1OC(OCCc2ccccc2)[C@H](NC(=O)CCNC(=N)N)[C@@H](OCc2ccc3ccccc3c2)[C@@H]1O (stereo partly shown) [compound 45]
A1 radioligand binding inhibition (Human δ-opioid (DOP); human δ-opioid (DOP) membranes): − (“−” indicates less than 50% inhibition at 10 μM)
A2 radioligand binding inhibition (Human κ-Opioid (KOP); human κ-opioid (KOP) membranes): − (“−” indicates less than 50% inhibition at 10 μM)
A3 radioligand binding inhibition (Human Melanocortin (MC3); human melanocortin MC3 membranes): − (“−” indicates less than 50% inhibition at 10 μM)
A4 radioligand binding inhibition (Human Melanocortin (MC4); human melanocortin MC4 membranes): + (“+” indicates greater than 50% inhibition at 10 μM)
A5 radioligand binding inhibition (Human melanocortin (MC5); human melanocortin MC5 membranes): − (“−” indicates less than 50% inhibition at 10 μM)
A6 radioligand binding inhibition ([1]; human MCH1 membranes): − (“−” indicates less than 50% inhibition at 10 μM)
A7 radioligand binding inhibition (Human μ-opioid (MOP); human μ-opioid (MOP) membranes): − (“−” indicates less than 50% inhibition at 10 μM)
A8 radioligand binding inhibition (Human neurokinin (NK1); human neurokinin NK1 membranes): + (“+” indicates greater than 50% inhibition at 10 μM)
A9 radioligand binding inhibition ([2]; human NPY-Y1 membranes): − (“−” indicates less than 50% inhibition at 10 μM)
A10 radioligand binding inhibition (Human opioid (ORL1); human ORL1 membranes): − (“−” indicates less than 50% inhibition at 10 μM)
A11 radioligand binding inhibition (Mouse urotensin (mUR2); mouse urotensin mUR2 membranes): − (“−” indicates less than 50% inhibition at 10 μM)

NCCC(=O)NC1C(OCc2ccccc2)OC(COCc2ccccc2)C(O)C1OCc1ccccc1 (stereo not shown) [compound 370]
A1: inhibition of radioligand binding, human δ-opioid (DOP) (Human δ-opioid (DOP); [3H]-Bremazocine): − (“−” indicates less than 50% inhibition at 10 μM)
A2: inhibition of radioligand binding, human κ-opioid (KOP) (Human κ-Opioid (KOP); [3H]-Diprenorphine): − (“−” indicates less than 50% inhibition at 10 μM)
A3: inhibition of radioligand binding, human melanocortin (MC3) (Human Melanocortin (MC3); [125I]-NDP-αMSH): − (“−” indicates less than 50% inhibition at 10 μM)
A4: inhibition of radioligand binding, human melanocortin (MC4) (Human Melanocortin (MC4); [125I]-NDP-αMSH): − (“−” indicates less than 50% inhibition at 10 μM)
A5: inhibition of radioligand binding, human melanocortin (MC5) (Human melanocortin (MC5); [125I]-NDP-αMSH): − (“−” indicates less than 50% inhibition at 10 μM)
A6: inhibition of radioligand binding, human melanin-concentrating hormone (MCH1) ([1]; [125I]-S36057): − (“−” indicates less than 50% inhibition at 10 μM)
A7: inhibition of radioligand binding, human μ-opioid (MOP) (Human μ-opioid (MOP); [3H]-Naloxone): − (“−” indicates less than 50% inhibition at 10 μM)
A8: inhibition of radioligand binding, human neurokinin (NK1) (Human neurokinin (NK1); [125I]-Substance P): + (“+” indicates greater than 50% inhibition at 10 μM)
A9: inhibition of radioligand binding, human neuropeptide Y (NPY-Y1) ([2]; [125I]-PYY): − (“−” indicates less than 50% inhibition at 10 μM)
A10: inhibition of radioligand binding, human opioid (ORL1) (Human opioid (ORL1); [125I]-Nociceptin): − (“−” indicates less than 50% inhibition at 10 μM)
A11: inhibition of radioligand binding, mouse urotensin (mUR2) (Mouse urotensin (mUR2); [125I]-Urotensin II): − (“−” indicates less than 50% inhibition at 10 μM)

CO[C@H]1[C@H](O)[C@@H](COCc2ccc(Cl)cc2)OC(OCCc2ccccc2)[C@@H]1NC(=O)CCNC(=N)N (stereo partly shown) [compound 120]
A1 radioligand binding, percentage inhibition (Human δ-opioid (DOP); [3H]-Bremazocine): − (“−” indicates less than 50% inhibition at 10 μM)
A2 radioligand binding, percentage inhibition (Human κ-Opioid (KOP); [3H]-Diprenorphine): + (“+” indicates greater than 50% inhibition at 10 μM)
A3 radioligand binding, percentage inhibition (Human Melanocortin (MC3); [125I]-NDP-αMSH): − (“−” indicates less than 50% inhibition at 10 μM)
A4 radioligand binding, percentage inhibition (Human Melanocortin (MC4); [125I]-NDP-αMSH): + (“+” indicates greater than 50% inhibition at 10 μM)
A5 radioligand binding, percentage inhibition (Human melanocortin (MC5); [125I]-NDP-αMSH): + (“+” indicates greater than 50% inhibition at 10 μM)
A6 radioligand binding, percentage inhibition ([1]; [125I]-S36057): − (“−” indicates less than 50% inhibition at 10 μM)
A7 radioligand binding, percentage inhibition (Human μ-opioid (MOP); [3H]-Naloxone): − (“−” indicates less than 50% inhibition at 10 μM)
A8 radioligand binding, percentage inhibition (Human neurokinin (NK1); [125I]-Substance P): + (“+” indicates greater than 50% inhibition at 10 μM)
A9 radioligand binding, percentage inhibition ([2]; [125I]-PYY): − (“−” indicates less than 50% inhibition at 10 μM)
A10 radioligand binding, percentage inhibition (Human opioid (ORL1); [125I]-Nociceptin): − (“−” indicates less than 50% inhibition at 10 μM)
A11 radioligand binding, percentage inhibition (Mouse urotensin (mUR2); [125I]-Urotensin II): − (“−” indicates less than 50% inhibition at 10 μM)

CSC1O[C@H](COCc2ccc(-c3ccccc3)cc2)[C@@H](O)[C@@H](OCc2ccc(Cl)cc2)[C@H]1NC(=O)CCCN (stereo partly shown) [compound 278]
A1: inhibition of radioligand binding (Human δ-opioid (DOP); [3H]-Bremazocine, FlashPlate): − (“−” indicates less than 50% inhibition at 10 μM)
A2: inhibition of radioligand binding (Human κ-Opioid (KOP); [3H]-Diprenorphine, filtration): − (“−” indicates less than 50% inhibition at 10 μM)
A3: inhibition of radioligand binding (Human Melanocortin (MC3); [125I]-NDP-αMSH, FlashPlate): − (“−” indicates less than 50% inhibition at 10 μM)
A4: inhibition of radioligand binding (Human Melanocortin (MC4); [125I]-NDP-αMSH, FlashPlate): − (“−” indicates less than 50% inhibition at 10 μM)
A5: inhibition of radioligand binding (Human melanocortin (MC5); [125I]-NDP-αMSH, FlashPlate): − (“−” indicates less than 50% inhibition at 10 μM)
A6: inhibition of radioligand binding ([1]; [125I]-S36057, FlashPlate): − (“−” indicates less than 50% inhibition at 10 μM)
A7: inhibition of radioligand binding (Human μ-opioid (MOP); [3H]-Naloxone, FlashPlate): − (“−” indicates less than 50% inhibition at 10 μM)
A8: inhibition of radioligand binding (Human neurokinin (NK1); [125I]-Substance P, filtration): + (“+” indicates greater than 50% inhibition at 10 μM)
A9: inhibition of radioligand binding ([2]; [125I]-PYY, FlashPlate): − (“−” indicates less than 50% inhibition at 10 μM)
A10: inhibition of radioligand binding (Human opioid (ORL1); [125I]-Nociceptin, FlashPlate): − (“−” indicates less than 50% inhibition at 10 μM)
A11: inhibition of radioligand binding (Mouse urotensin (mUR2); [125I]-Urotensin II, FlashPlate): − (“−” indicates less than 50% inhibition at 10 μM)

Reference: US20080009418A1, “Selective Inhibitors” (Alchemia LTD., priority 2004, published 2008)
